Measured values as given in patent US10988478B1, “Pyrazolo[1,5a]pyrimidine derivatives as IRAK4 modulators” (Genentech, Inc., priority 2015, dated 2021).

Molecular target: human IRAK4 (Homo sapiens (Human), UniProt Q9NWZ3)
Assay: IRAK4 kinase inhibition, Transcreener fluorescence polarization ADP assay
Type: biochemical
Settings: recombinant full-length His6-IRAK4; 125 uM ATP; 90 min; Ki computed using ATP Km 642 uM
Procedure: Compounds were assayed for inhibition of human IRAK4 and IRAK1 catalytic activity using recombinant enzyme produced from insect cells. Full-length IRAK4 protein, carrying an N-terminal His6-Tag, was obtained from Life Technologies (Carlsbad, Calif., USA). The IRAK1 construct was produced internally and was comprised of IRAK1 residues Arg194 to Ser712, preceded by an NH2-terminal His6 tag and the coding sequence for glutathione-S-transferase.

Sequence of human IRAK4 (Q9NWZ3 whole entry): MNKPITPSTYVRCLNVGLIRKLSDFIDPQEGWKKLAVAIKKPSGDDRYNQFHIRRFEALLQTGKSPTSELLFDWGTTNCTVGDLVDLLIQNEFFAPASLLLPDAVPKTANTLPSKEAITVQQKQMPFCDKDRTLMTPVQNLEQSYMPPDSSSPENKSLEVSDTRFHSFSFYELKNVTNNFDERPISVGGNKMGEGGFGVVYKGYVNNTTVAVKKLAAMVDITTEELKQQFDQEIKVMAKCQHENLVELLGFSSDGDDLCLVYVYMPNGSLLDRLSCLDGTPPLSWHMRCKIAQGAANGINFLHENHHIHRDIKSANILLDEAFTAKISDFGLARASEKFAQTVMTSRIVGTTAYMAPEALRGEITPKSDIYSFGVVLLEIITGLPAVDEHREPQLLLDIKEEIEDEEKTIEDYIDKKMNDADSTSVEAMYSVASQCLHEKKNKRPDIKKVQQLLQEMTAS

`O=C(Nc1cc2c(cc1N1CCOCC1)C(=O)N(C[C@H]1CCOC1)C2)c1cnn2cccnc12` [Example 556, N-[6-morpholino-1-oxo-2-[[(3R)-tetrahydrofuran-3-yl]methyl]isoindolin-5-yl]pyrazolo[1,5-a]pyrimidine-3-carboxamide] was tested. Which Ki did it give?
Its Ki is 4.5 nM.

`C[C@H](O)[C@H](F)CN1Cc2cc(NC(=O)c3cnn4cccnc34)c(N3CCOCC3)cc2C1=O` [Example 557, N-[2-[(2R,2S)-2-fluoro-3-hydroxy-butyl]-6-morpholino-1-oxo-isoindolin-5-yl]pyrazolo[1,5-a]pyrimidine-3-carboxamide] was tested. Which Ki did it give?
Its Ki is 7.3 nM.

With `C[C@@H](O)[C@@H](F)CN1Cc2cc(NC(=O)c3cnn4cccnc34)c(N3CCOCC3)cc2C1=O` [Example 558, N-[2-[(2S,3R)-2-fluoro-3-hydroxy-butyl]-6-morpholino-1-oxo-isoindolin-5-yl]pyrazolo[1,5-a]pyrimidine-3-carboxamide] as the compound, how does the Ki read?
The Ki was 8.4 nM.

For `O=C(Nc1cc2c(cc1N1CCOCC1)C(=O)N(C[C@@H]1CCC[C@@H]1O)C2)c1cnn2cccnc12` [Example 559, N-[2-[[(1S,2S)-2-hydroxycyclopentyl]methyl]-6-morpholino-1-oxo-isoindolin-5-yl]pyrazolo[1,5-a]pyrimidine-3-carboxamide], which Ki is on record?
Its Ki is 2.2 nM.

With `O=C(Nc1cc2c(cc1N1CCOCC1)C(=O)N(C[C@H]1CCC[C@H]1O)C2)c1cnn2cccnc12` [Example 560, N-[2-[[(1R,2R)-2-hydroxycyclopentyl]methyl]-6-morpholino-1-oxo-isoindolin-5-yl]pyrazolo[1,5-a]pyrimidine-3-carboxamide] as the compound, how does the Ki read?
Its Ki is 1.6 nM.

Which Ki does the source give for `C[C@H](O)[C@@H](F)CN1Cc2cc(NC(=O)c3cnn4cccnc34)c(N3CCOCC3)cc2C1=O` [Example 561, N-(2-((2S,3S)-2-fluoro-3-hydroxybutyl)-6-morpholino-1-oxoisoindolin-5-yl)pyrazolo[1,5-a]pyrimidine-3-carboxamide] here?
The Ki was 11 nM.

For `C[C@@H](O)[C@H](F)CN1Cc2cc(NC(=O)c3cnn4cccnc34)c(N3CCOCC3)cc2C1=O` [Example 562, N-(2-((2R,3R)-2-fluoro-3-hydroxybutyl)-6-morpholino-1-oxoisoindolin-5-yl)pyrazolo[1,5-a]pyrimidine-3-carboxamide], which Ki is on record?
The Ki was 1.9 nM.

For `CC(C)(O)[C@H](F)CN1Cc2cc(NC(=O)c3cnn4cccnc34)c(N3CCC3)cc2C1=O` [Example 563, N-[6-(azetidin-1-yl)-2-[(2R)-2-fluoro-3-hydroxy-3-methyl-butyl]-1-oxo-isoindolin-5-yl]pyrazolo[1,5-a]pyrimidine-3-carboxamide], which Ki is on record?
The Ki was 33 nM.

With `O=C(Nc1cc2c(cc1N1CCOCC1)C(=O)N([C@H]1CCC[C@H]1CO)C2)c1cnn2cccnc12` [Example 564, N-(2-((1S,2R)-2-(hydroxymethyl)cyclopentyl)-6-morpholino-1-oxoisoindolin-5-yl)pyrazolo[1,5-a]pyrimidine-3-carboxamide] as the compound, how does the Ki read?
The Ki was 28 nM.

`O=C(Nc1cc2c(cc1N1CCOCC1)C(=O)N([C@@H]1CCC[C@@H]1CO)C2)c1cnn2cccnc12` [Example 565, N-(2-((1R,2S)-2-(hydroxymethyl)cyclopentyl)-6-morpholino-1-oxoisoindolin-5-yl)pyrazolo[1,5-a]pyrimidine-3-carboxamide] was tested. Which Ki did it give?
Its Ki is 94 nM.

Which Ki does the source give for `O=C(Nc1cc2c(cc1N1CCOCC1)C(=O)N([C@H]1CCC[C@@H]1CO)C2)c1cnn2cccnc12` [Example 566, N-(2-((1S,2S)-2-(hydroxymethyl)cyclopentyl)-6-morpholino-1-oxoisoindolin-5-yl)pyrazolo[1,5-a]pyrimidine-3-carboxamide] here?
The Ki was 8 nM.

With `O=C(Nc1cc2c(cc1N1CCOCC1)C(=O)N([C@@H]1CCC[C@H]1CO)C2)c1cnn2cccnc12` [Example 567, N-(2-((1R,2R)-2-(hydroxymethyl)cyclopentyl)-6-morpholino-1-oxoisoindolin-5-yl)pyrazolo[1,5-a]pyrimidine-3-carboxamide] as the compound, how does the Ki read?
The Ki was 5.9 nM.

How did the Ki turn out when `CC1(C#N)CCN(c2cc3c(cc2NC(=O)c2cnn4cccnc24)CN(C[C@@H](F)C(C)(C)O)C3=O)CC1` [Example 569, N-[6-(4-Cyano-4-methyl-1-piperidyl)-2-[(2R)-2-fluoro-3-hydroxy-3-methyl-butyl]-1-oxo-isoindolin-5-yl]pyrazolo[1,5-a]pyrimidine-3-carboxamide] was run?
The Ki was 3.1 nM.

With `CN(C)c1cc2c(cc1NC(=O)c1cnn3cccnc13)CN(C[C@@H](F)C(C)(C)O)C2=O` [Example 570, N-[6-(dimethylamino)-2-[(2R)-2-fluoro-3-hydroxy-3-methyl-butyl]-1-oxo-isoindolin-5-yl]pyrazolo[1,5-a]pyrimidine-3-carboxamide] as the compound, how does the Ki read?
Its Ki is 0.63 nM.

How did the Ki turn out when “N-(2,2-dimethyl-6-(4-(2-oxo-2-(thiazol-2-ylamino)ethyl)piperazin-1-yl)-2,3-dihydrobenzofuran-5-yl)pyrazolo[1,5-a]pyridine-3-carboxamide [Example 441]” was run?
Its Ki is 6 nM.

With “N-[2,2-Dimethyl-6-[(5-methyl-1H-pyrazol-3-yl)methoxy]-3H-benzofuran-5-yl]pyrazolo[1,5-a]pyrimidine-3-carboxamide [Example 543]” as the compound, how does the Ki read?
The Ki was 140 nM.

How did the Ki turn out when “N-[(2R)-6-[4-(2,2-difluoroethyl)piperazin-1-yl]-2-(hydroxymethyl)-2-methyl-3H-benzofuran-5-yl]-6-fluoro-pyrazolo[1,5-a]pyrimidine-3-carboxamide [Example 494]” was run?
Its Ki is 40 nM.

Which Ki does the source give for “N-[(2S)-6-[4-(2,2-difluoroethyl)piperazin-1-yl]-2-(hydroxymethyl)-2-methyl-3H-benzofuran-5-yl]-6-fluoro-pyrazolo[1,5-a]pyrimidine-3-carboxamide [Example 495]” here?
Its Ki is 17 nM.
